For 33 compounds, IC50 results are on record in patent US9133168B2, “Pyrimidine derivatives, preparation thereof, and pharmaceutical use thereof as akt(pkb) phosphorylation inhibitors” (SANOFI, priority 2010, dated 2015).

This assay deals with AKT protein phosphorylated on serine 473 (P-AKT-S473) in PC3 human prostate carcinoma cells. The assay is described as follows: pAKT expression in PC3 human prostate carcinoma cells, MSD Multi-spot Biomarker detection (Test A). In kind it is cell-based. As to conditions: 1 to 2 h incubation, P-AKT-S473, absolute IC50, mean of two independent experiments. Put shortly:
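Lysate pAKT-S473 measured by electrochemiluminescent sandwich immunoassay; inhibition versus cell-free background and DMSO-only wells, IC50 averaged over two experiments.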

For the compound `CC1Cc2c(F)cccc2N1C(=O)Cc1nc(N2CCOCC2)c(F)c(=O)n1C` (stereo not drawn) [Example 22a, 5-fluoro-2-[2-((+)-4-fluoro-2-methyl-2,3-dihydroindol-1-yl)-2-oxoethyl]-3-methyl-6-morpholin-4-yl-3H-pyrimidin-4-one], half-maximal inhibition (PC3 cells) (IC50) required 98 nM.
Under “PC3 cells”, `CC1Cc2cc(F)c(F)cc2N1C(=O)Cc1nc(N2CCOCC2)cc(=O)[nH]1` (stereo not drawn) [Example 22c] yielded an IC50 of 2 nM.
On to `Cn1c(CC(=O)N2CC3(CCOCC3)c3ccccc32)nc(N2CCOCC2)cc1=O` [Example 22d, 3-methyl-6-(morpholin-4-yl)-2-[2-oxo-2-(2′,3′,5′,6′-tetrahydrospiro[indole-3,4′-pyran]-1(2H)-yl)ethyl]pyrimidin-4(3H)-one], for which half-maximal inhibition (Homo sapiens, PC-3, PC3 cells) (IC50) required 106 nM.
Turning to `CC1Cc2c(F)cccc2N1C(=O)Cc1nc(N2CCOCC2)c(F)c(=O)n1C` (stereo not drawn) [Example 23a, 5-fluoro-2-[2-((−)-4-fluoro-2-methyl-2,3-dihydroindol-1-yl)-2-oxoethyl]-3-methyl-6-morpholin-4-yl-3H-pyrimidin-4-one], the midpoint of inhibition (PC3 cells), the IC50, lay at 203 nM.
On to `Cc1cc(-c2cc(=O)[nH]c(CC(=O)N3CCc4c(F)cccc43)n2)ccn1` [Example 23b, 2-[2-(4-fluoro-2,3-dihydroindol-1-yl)-2-oxoethyl]-6-(2-methylpyridin-4-yl)-3H-pyrimidin-4-one], for which the IC50 (Homo sapiens, PC-3, PC3 cells) turned out to be 244 nM.
Take `CC1Cc2cc(F)c(F)cc2N1C(=O)Cc1nc(N2CCOCC2)cc(=O)n1C` (stereo not drawn) [Example 23c, 2-{2-[(−)-5,6-difluoro-2-methyl-2,3-dihydro-1H-indol-1-yl]-2-oxoethyl}-3-methyl-6-(morpholin-4-yl)pyrimidin-4(3H)-one]: the IC50 (PC3 cells) stood at 32 nM.
Compound `Cn1c(CC(=O)N2CC3(CCNCC3)c3ccccc32)nc(N2CCOCC2)cc1=O` [Example 23d, 3-methyl-6-(morpholin-4-yl)-2-[2-oxo-2-(spiro[indole-3,4′-piperidin]-1(2H)-yl)ethyl]pyrimidin-4(3H)-one] displayed an IC50 (Homo sapiens, PC-3, PC3 cells) of 196 nM.
`CC1Cc2c(ccc(F)c2F)N1C(=O)Cc1nc(N2CCOCC2)c(F)c(=O)n1C` (stereo not drawn) [Example 24a, 5-fluoro-2-[2-((−)-4,5-difluoro-2-methyl-2,3-dihydroindol-1-yl)-2-oxoethyl]-3-methyl-6-morpholin-4-yl-3H-pyrimidin-4-one]: the 50% inhibitory concentration (IC50) (PC3 cells) worked out at 310 nM.
`O=C(Cc1nc(-c2ccnc(F)c2)cc(=O)[nH]1)N1CCc2c(F)cccc21` [Example 24b, 2-[2-(4-Fluoro-2,3-dihydroindol-1-yl)-2-oxoethyl]-6-(2-fluoropyridin-4-yl)-3H-pyrimidin-4-one] returned a concentration for half-maximal inhibition (IC50) (Homo sapiens, PC-3, PC3 cells) of 2860 nM.
The compound `CC1Cc2cc(F)c(F)cc2N1C(=O)Cc1nc(N2CCOCC2)cc(=O)n1C` (stereo not drawn) [Example 24c, 2-{2-[(+)-5,6-difluoro-2-methyl-2,3-dihydro-1H-indol-1-yl]-2-oxoethyl}-3-methyl-6-(morpholin-4-yl)pyrimidin-4(3H)-one] yielded a 50% inhibitory concentration (IC50) (PC3 cells) of 114 nM.
Where the note is “PC3 cells”, `CC1Cc2c(ccc(F)c2F)N1C(=O)Cc1nc(N2CCOCC2)c(F)c(=O)n1C` (stereo not drawn) [Example 25a, 5-fluoro-2-[2-((+)-4,5-difluoro-2-methyl-2,3-dihydroindol-1-yl)-2-oxoethyl]-3-methyl-6-morpholin-4-yl-3H-pyrimidin-4-one] showed a half-maximal inhibitory concentration (IC50) of 98 nM.
Regarding `CC1Cc2cc(F)c(F)cc2N1C(=O)Cc1nc(N2CCOCC2)c(F)c(=O)n1C` (stereo not drawn) [Example 26a, 5-fluoro-2-[2-((+)-5,6-difluoro-2-methyl-2,3-dihydroindol-1-yl)-2-oxoethyl]-3-methyl-6-morpholin-4-yl-3H-pyrimidin-4-one], the 50% inhibitory concentration (IC50) (Homo sapiens, PC-3, PC3 cells) worked out at 211 nM.
On the same count and under the same terms, under `CN1CCN(c2cccc3c2CCN3C(=O)Cc2nc(N3CCOCC3)cc(=O)[nH]2)CC1` [Example 26d, 2-{2-[4-(4-methylpiperazin-1-yl)-2,3-dihydro-1H-indol-1-yl]-2-oxoethyl}-6-(morpholin-4-yl)pyrimidin-4(3H)-one] stands 167 nM.
Where the note is “PC3 cells”, `CC1Cc2cc(F)c(F)cc2N1C(=O)Cc1nc(N2CCOCC2)c(F)c(=O)n1C` (stereo not drawn) [Example 27a, 5-fluoro-2-[2-((−)-5,6-difluoro-2-methyl-2,3-dihydroindol-1-yl)-2-oxoethyl]-3-methyl-6-morpholin-4-yl-3H-pyrimidin-4-one] returned an IC50 of 270 nM.
On to `CC1Cc2c(Cl)cccc2N1C(=O)Cc1nc(N2CCOCC2)c(F)c(=O)n1C` (stereo not drawn) [Example 28a, 5-fluoro-2-[2-((+)-4-chloro-2-methyl-2,3-dihydroindol-1-yl)-2-oxoethyl]-3-methyl-6-morpholin-4-yl-3H-pyrimidin-4-one], for which the IC50 (PC3 cells) is 476 nM.
`CC1CN(c2cc(=O)[nH]c(CC(=O)N3CCc4c(Cl)cccc43)n2)CCO1` (stereo not drawn) [Example 28b, 2-[2-(4-chloro-2,3-dihydroindol-1-yl)-2-oxoethyl]-6-(2-methylmorpholin-4-yl)-3H-pyrimidin-4-one] yielded an IC50 (Homo sapiens, PC-3, PC3 cells) of 12 nM.
As to `CC1Cc2c(Cl)cccc2N1C(=O)Cc1nc(N2CCOCC2)c(F)c(=O)n1C` (stereo not drawn) [Example 29a, 5-fluoro-2-[2-((−)-4-chloro-2-methyl-2,3-dihydroindol-1-yl)-2-oxoethyl]-3-methyl-6-morpholin-4-yl-3H-pyrimidin-4-one], the IC50 (PC3 cells) was 20 nM.
`CC1Cc2c(Br)cccc2N1C(=O)Cc1nc(N2CCOCC2)c(F)c(=O)n1C` (stereo not drawn) [Example 30a, 5-fluoro-2-[2-((+)-4-bromo-2-methyl-2,3-dihydroindol-1-yl)-2-oxoethyl]-3-methyl-6-morpholin-4-yl-3H-pyrimidin-4-one]: inhibition (Homo sapiens, PC-3, PC3 cells) was half-maximal at 16 nM (IC50).
For `C[C@H]1Cc2ccccc2N1C(=O)Cc1nc(N2CCOC(CF)C2)cc(=O)[nH]1` (stereo partly drawn) [Example 30b, 6-(2-fluoromethylmorpholin-4-yl)-2-[2-((S)-2-methyl-2,3-dihydroindol-1-yl)-2-oxoethyl]-3H-pyrimidin-4-one], for the setting “Homo sapiens, PC-3, PC3 cells”, the midpoint of inhibition, the IC50, lay at 44 nM.
Consider `CC1Cc2c(Br)cccc2N1C(=O)Cc1nc(N2CCOCC2)c(F)c(=O)n1C` (stereo not drawn) [Example 31a, 5-fluoro-2-[2-((−)-4-bromo-2-methyl-2,3-dihydroindol-1-yl)-2-oxoethyl]-3-methyl-6-morpholin-4-yl-3H-pyrimidin-4-one], for which half-maximal inhibition (PC3 cells) (IC50) was put at 15 nM.
Compound `CC1Cc2ccc(F)cc2N1C(=O)Cc1nc(N2CCOCC2)c(F)c(=O)[nH]1` (stereo not drawn) [Example 32a, 5-fluoro-2-[2-((−)-6-fluoro-2-methyl-2,3-dihydroindol-1-yl)-2-oxoethyl]-6-morpholin-4-yl-3H-pyrimidin-4-one] registered a half-inhibitory concentration (IC50) (Homo sapiens, PC-3, PC3 cells) of 40 nM.
`CC1Cc2ccc(F)cc2N1C(=O)Cc1nc(N2CCOCC2)c(F)c(=O)[nH]1` (stereo not drawn) [Example 33a, 5-Fluoro-2-[2-((+)-6-fluoro-2-methyl-2,3-dihydroindol-1-yl)-2-oxoethyl]-6-morpholin-4-yl-3H-pyrimidin-4-one]: for the setting “PC3 cells”, half-maximal inhibition (IC50) required 77 nM.
Under “Homo sapiens, PC-3, PC3 cells”, `O=C(Cc1nc(N2CCOCC2)cc(=O)[nH]1)N1CCc2c(N3CCOCC3)cccc21` [Example 33d, 6-(morpholin-4-yl)-2-{2-[4-(morpholin-4-yl)-2,3-dihydro-1H-indol-1-yl]-2-oxoethyl}pyrimidin-4(3H)-one] registered an IC50 of 111 nM.
Still for that read-out and setting: the value for `CC1Cc2c(ccc(F)c2Cl)N1C(=O)Cc1nc(N2CCOCC2)c(F)c(=O)[nH]1` (stereo not drawn) [Example 34a, 5-Fluoro-2-[2-(4-chloro-5-fluoro-2-methyl-2,3-dihydroindol-1-yl)-2-oxoethyl]-6-morpholin-4-yl-3H-pyrimidin-4-one] was 2 nM.
Turning to `C[C@H]1Cc2ccccc2N1C(=O)Cc1nc(N2CCOCC2)c(Cl)c(=O)[nH]1` [Example 35a, 5-chloro-2-[2-((S)-2-methyl-2,3-dihydroindol-1-yl)-2-oxoethyl]-6-morpholin-4-yl-3H-pyrimidin-4-one], under “Homo sapiens, PC-3, PC3 cells”, inhibition was half-maximal at 140 nM (IC50).
As for `CC1Cc2ccc(F)cc2N1C(=O)Cc1nc(N2CCOCC2)cc(=O)[nH]1` (stereo not drawn) [Example 35c, 2-{2-[(+)-6-fluoro-2-methyl-2,3-dihydro-1H-indol-1-yl]-2-oxoethyl}-6-(morpholin-4-yl)pyrimidin-4(3H)-one], the half-maximal inhibitory concentration (IC50) (PC3 cells) is 27 nM.
Under “Homo sapiens, PC-3, PC3 cells”, `C[C@@H]1Cc2ccccc2N1C(=O)Cc1nc(N2CCOCC2)c(Cl)c(=O)[nH]1` [Example 36a, 5-chloro-2-[2-((R)-2-methyl-2,3-dihydroindol-1-yl)-2-oxoethyl]-6-morpholin-4-yl-3H-pyrimidin-4-one] showed an IC50 of 55 nM.
`CC1Cc2ccc(F)cc2N1C(=O)Cc1nc(N2CCOCC2)cc(=O)[nH]1` (stereo not drawn) [Example 36c, 2-{2-[(−)-6-fluoro-2-methyl-2,3-dihydro-1H-indol-1-yl]-2-oxoethyl}-6-(morpholin-4-yl)pyrimidin-4(3H)-one] returned an IC50 (PC3 cells) of 9 nM.
The compound `C[C@H]1Cc2ccccc2N1C(=O)Cc1nc(N2CCOCC2)c(Br)c(=O)[nH]1` [Example 37a, 5-bromo-2-[2-((S)-2-methyl-2,3-dihydroindol-1-yl)-2-oxoethyl]-6-morpholin-4-yl-3H-pyrimidin-4-one] registered a 50% inhibitory concentration (IC50) (Homo sapiens, PC-3, PC3 cells) of 56 nM.
Take `O=C(Cc1nc(N2CCOCC2)c(F)c(=O)[nH]1)N1c2ccccc2C[C@@H]1CO` [Example 38a, 5-Fluoro-2-[2-((+)-2-hydroxymethyl-2,3-dihydroindol-1-yl)-2-oxoethyl]-6-morpholin-4-yl-3H-pyrimidin-4-one]: 1140 nM corresponded to half-maximal inhibition (Homo sapiens, PC-3, PC3 cells) (IC50).
Turning to `O=C(Cc1nc(N2CCOCC2)cc(=O)[nH]1)N1c2ccccc2CC1CF` (stereo not drawn) [Example 38d, 2-[2-((+)-2-Fluoromethyl-2,3-dihydroindol-1-yl)-2-oxoethyl]-6-morpholin-4-yl-3H-pyrimidin-4-one], it took 15 nM to reach half-maximal inhibition (Homo sapiens, PC-3, PC3 cells) (IC50).
Consider `O=C(Cc1nc(N2CCOCC2)c(F)c(=O)[nH]1)N1c2ccccc2C[C@H]1CO` [Example 39a, 5-Fluoro-2-[2-((−)-2-hydroxymethyl-2,3-dihydroindol-1-yl)-2-oxoethyl]-6-morpholin-4-yl-3H-pyrimidin-4-one], for which the half-inhibitory concentration (IC50) (Homo sapiens, PC-3, PC3 cells) came out at 568 nM.
For the compound `O=C(Cc1nc(N2CCOCC2)cc(=O)n1-c1ccccc1)N1CCc2ccccc21` [Example 39d, 2-[2-(2,3-Dihydroindol-1-yl)-2-oxoethyl]-6-morpholin-4-yl-3-phenyl-3H-pyrimidin-4-one], the IC50 (Homo sapiens, PC-3, PC3 cells) was 51 nM.
